In patent US10588316B2 (priority 2015, dated 2020):
Several values for one entry are separate records, joined by “and”; a condition that tells them apart may be missing. Equal values may be shown once.

Tests used:
Parameters in all cases: species or system wheat
Settings in all cases: in vivo
[1] = test system: toxin synthesis capability of thalli
DON toxin [2] = test system: DON toxin
DON toxin [3] = test system: DON toxin; remark: listed apart in the source
DON toxin [4] = test system: DON toxin; remark: listed apart in the source
DON toxin [5] = test system: DON toxin; remark: listed apart in the source
DON toxin [6] = test system: DON toxin; remark: listed apart in the source

| Compound | DON Synthesis Capability [1] | toxin contamination level of grains (DON toxin [2]) | DON Reduction Percentage (DON toxin [3]) [%] | Grain Toxin Content (mg of DON/Kg of grain) (DON toxin [4]) | Rate of Decrease in Toxin Content in Grains (%) (DON toxin [4]) | Grain Toxin Content mg of DON/kg of grain (DON toxin [5]) | Toxin Reduction Percentage % (DON toxin [5]) | Grain Toxin Content (DON toxin [6]) |
| --- | --- | --- | --- | --- | --- | --- | --- | --- |
| COC(=O)Nc1nc2ccccc2[nH]1 [Carbendazim, carbendazim] | 28.94 | 4.4 mg/kg of grains | 55.00 | 4.35 | 32.7 | 2.95 mg of DON/kg of grain | 34.73% |  |
| OCC1=CC(N[C@H]2C[C@H](CO)[C@@H](OC3O[C@H](CO)[C@@H](O)[C@H](O)[C@H]3O)C(O)[C@H]2O)[C@H](O)[C@@H](O)C1O (stereo partly shown) [Jinggangmycin, jinggangmycin A] |  |  |  |  |  | 2.86 mg of DON/kg of grain and 3.82 mg of DON/kg of grain and 4.02 mg of DON/kg of grain and 4.14 mg of DON/kg of grain |  | 2.89 μg/g of kernels and 3.24 μg/g of kernels and 3.86 μg/g of kernels and 4.2 μg/g of kernels and 4.77 μg/g of kernels |
| Tebuconazole | 19.88 and 18.35 and 18.95 and 19.02 and 19.41 |  |  |  |  | 1.89 mg of DON/kg of grain and 2.14 mg of DON/kg of grain and 2.4 mg of DON/kg of grain and 2.8 mg of DON/kg of grain | 58.19% and 52.65% and 46.90% and 38.05% | 4.02 μg/g of kernels and 3.29 μg/g of kernels and 2.14 μg/g of kernels and 2.08 μg/g of kernels |
